What all share (format): biochemical
The target in one experiment is T1, MMP-14 (Homo sapiens, UniProt P50281).
T1 construct: The catalytic domain enzyme was expressed in E. coli inclusion bodies, solubilized in urea; made in house
Put plainly: MMP-14 inhibition (in vitro Ki). As to conditions: Table 9; read-out: MMP-14 Ki (IC-50).

Another experiment has as its target T2, MMP-2 (Homo sapiens, UniProt P08253).
T2 construct: made in house; host or cells: MMP-2-transfected p2AHT2 cells
T2 sequence (P08253 110-660): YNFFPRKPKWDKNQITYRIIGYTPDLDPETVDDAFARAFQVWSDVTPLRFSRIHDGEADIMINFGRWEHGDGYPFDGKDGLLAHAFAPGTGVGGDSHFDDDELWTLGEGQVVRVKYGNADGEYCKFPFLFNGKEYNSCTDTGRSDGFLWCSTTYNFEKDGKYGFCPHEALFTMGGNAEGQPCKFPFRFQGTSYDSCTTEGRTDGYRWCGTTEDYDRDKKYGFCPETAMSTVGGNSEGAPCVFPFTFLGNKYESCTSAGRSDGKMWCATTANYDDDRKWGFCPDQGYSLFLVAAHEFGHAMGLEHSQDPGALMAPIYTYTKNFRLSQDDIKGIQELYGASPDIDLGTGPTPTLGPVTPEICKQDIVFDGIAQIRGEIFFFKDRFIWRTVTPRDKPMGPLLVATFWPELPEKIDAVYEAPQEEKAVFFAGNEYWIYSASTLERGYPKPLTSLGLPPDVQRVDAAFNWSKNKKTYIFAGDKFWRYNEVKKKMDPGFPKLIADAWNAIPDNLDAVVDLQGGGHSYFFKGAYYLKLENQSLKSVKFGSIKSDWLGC
Put plainly: MMP-2 inhibition (in vitro Ki). To be noted: Table 9; read-out: MMP-2 Ki (IC-50).

The next experiment deals with T3, MMP-1 (Homo sapiens, UniProt P03956).
T3 construct: made in house; host or cells: MMP-1-transfected HT-1080 cells (spent media)
T3 sequence (P03956 100-469): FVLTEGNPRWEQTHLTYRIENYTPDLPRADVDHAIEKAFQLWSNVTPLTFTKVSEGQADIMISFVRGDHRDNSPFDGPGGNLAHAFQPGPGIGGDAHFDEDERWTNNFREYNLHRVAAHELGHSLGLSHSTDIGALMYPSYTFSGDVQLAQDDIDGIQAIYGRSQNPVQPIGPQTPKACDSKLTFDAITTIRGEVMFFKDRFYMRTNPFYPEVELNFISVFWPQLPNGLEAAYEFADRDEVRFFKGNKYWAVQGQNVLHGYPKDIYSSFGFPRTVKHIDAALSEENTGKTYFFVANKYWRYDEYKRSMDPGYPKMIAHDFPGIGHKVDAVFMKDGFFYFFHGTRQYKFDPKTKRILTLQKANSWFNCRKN
Put plainly: MMP-1 inhibition (in vitro Ki). To be noted: Table 9; read-out: MMP-1 Ki (IC-50).

Another experiment has as its target T4, MMP-13 (Homo sapiens, UniProt P45452).
T4 construct: made in house; host or cells: baculovirus / insect cells
Kind of experiment: MMP-13 inhibition (in vitro Ki). As to conditions: Table 9; read-out: MMP-13 Ki (IC-50).

The next experiment addresses T5, MMP-9 (Homo sapiens, UniProt P14780).
T5 construct: made in house; host or cells: MMP-9-transfected HT1080 cells (spent media)
Put plainly: MMP-9 inhibition (in vitro Ki). To be noted: Table 9; read-out: MMP-9 Ki (IC-50).

The term Ki denotes a measure of affinity in units of concentration, obtained from inhibition or displacement.

T5 sequence (P14780 107-707 limits assumed): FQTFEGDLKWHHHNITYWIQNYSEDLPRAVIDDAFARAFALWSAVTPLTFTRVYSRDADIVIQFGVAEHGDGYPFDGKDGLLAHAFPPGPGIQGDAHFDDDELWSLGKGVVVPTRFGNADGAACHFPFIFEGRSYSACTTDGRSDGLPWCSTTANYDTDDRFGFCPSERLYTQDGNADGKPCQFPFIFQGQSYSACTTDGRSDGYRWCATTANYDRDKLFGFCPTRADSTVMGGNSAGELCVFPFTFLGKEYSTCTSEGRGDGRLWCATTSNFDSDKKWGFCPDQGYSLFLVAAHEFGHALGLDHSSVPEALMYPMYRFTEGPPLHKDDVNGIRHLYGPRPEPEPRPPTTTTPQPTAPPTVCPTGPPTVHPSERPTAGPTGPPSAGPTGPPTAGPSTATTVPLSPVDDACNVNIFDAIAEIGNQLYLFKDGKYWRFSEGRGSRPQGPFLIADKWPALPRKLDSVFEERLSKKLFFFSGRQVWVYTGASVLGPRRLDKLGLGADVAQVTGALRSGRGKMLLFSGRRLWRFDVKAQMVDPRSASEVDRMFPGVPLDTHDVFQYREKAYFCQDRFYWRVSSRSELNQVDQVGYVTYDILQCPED

For `O=C(NO)C1(S(=O)(=O)N2CCN(c3ccc(-c4nnn(CC5CC5)n4)cc3)CC2)CCOCC1` [Example A175], the Ki stood at 591 nM on MMP-14; 0.07 nM on MMP-2; 854 nM on MMP-1; 0.09 nM at MMP-13; 1.37 nM at MMP-9.
For `CCc1nc(-c2ccc(N3CCN(S(=O)(=O)C4(C(=O)NO)CCOCC4)CC3)cc2)no1` [Example A176] the same measures were 184 nM, 0.08 nM, 1710 nM, 0.15 nM and 0.81 nM.
With `COCc1ccc(C2CCN(S(=O)(=O)C3(C(=O)NO)CCOCC3)CC2)nc1` [Example A177], the Ki was 3360 nM at MMP-14; 3.83 nM at MMP-2; more than 10000 nM at MMP-1; 6.81 nM on MMP-13; 0.88 nM at MMP-9.
For `O=C(NO)C1(S(=O)(=O)N2CCC(c3ccc(CCC(F)(F)C(F)(F)F)cn3)CC2)CCN(c2ncccn2)CC1` [Example A178], the Ki is 1950 nM at MMP-14; 0.881 nM on MMP-2; more than 10000 nM at MMP-1; 0.437 nM on MMP-13; 0.596 nM on MMP-9.
For `CCOCc1ccc(C2CCN(S(=O)(=O)C3(C(=O)NO)CCOCC3)CC2)nc1` [Example A179] the same measures were 4280 nM, 2.51 nM, more than 10000 nM, 1.9 nM and 0.49 nM.
The corresponding values for `N#Cc1ccc(N2CCN(S(=O)(=O)C3(C(=O)NO)CCOCC3)CC2)cc1F` [Example A180] are 1300 nM, 2.35 nM, 8890 nM, 2.1 nM and 96.1 nM.
`CCN1CCC(C(=O)NO)(S(=O)(=O)N2CCC(c3ccc(CCC(F)(F)C(F)(F)F)cn3)CC2)CC1` [Example A181]: the Ki at MMP-14 is more than 10000 nM; at MMP-2, 2.36 nM; at MMP-1 it was more than 10000 nM; at MMP-13, 0.61 nM; on MMP-9, 1.33 nM.
Take `COCCN1CCC(C(=O)NO)(S(=O)(=O)N2CCC(c3ccc(CCC(F)(F)C(F)(F)F)cn3)CC2)CC1` [Example A182]: the Ki on MMP-14 was 5890 nM; at MMP-2, 0.93 nM; at MMP-1, more than 10000 nM; on MMP-13, 0.3 nM; on MMP-9, 0.39 nM.
For `O=C(NO)C1(S(=O)(=O)N2CCN(c3ccc(CCCC(F)(F)F)cc3)CC2)CCN(CC(F)(F)F)CC1` [Example A183] the same measures were more than 10000 nM, 2.06 nM, more than 10000 nM, 1.07 nM and 307 nM.
The corresponding values for `O=C(NO)C1(S(=O)(=O)N2CCN(c3ccc(CCC(F)(F)F)cn3)CC2)CCOCC1` [Example A184] are 985 nM, 0.38 nM, 7050 nM, 0.41 nM and 0.52 nM.
For `O=C(NO)C1(S(=O)(=O)N2CCC(CCc3ccccc3)CC2)CCOCC1` [Example A185] the same measures were 42.7 nM, 1.1 nM, 1720 nM, 0.95 nM and 1.69 nM.
As for `CCn1nnc(-c2ccc(N3CCN(S(=O)(=O)C4(C(=O)NO)CCOCC4)CC3)cc2)n1` [Example A186], the Ki on MMP-14 came to 421 nM; on MMP-2 it was 0.23 nM; at MMP-1 it was 924 nM; on MMP-13 it was 0.21 nM; at MMP-9, 0.55 nM.
For `O=C(NO)C1(S(=O)(=O)N2CCN(c3ccc(-c4cccs4)cn3)CC2)CCOCC1` [Example A187] the same measures were 1240 nM, 0.54 nM, 936 nM, 0.56 nM and 2.14 nM.
For `O=C(NO)C1(S(=O)(=O)N2CCC(c3ccc(-n4ccnc4)cn3)CC2)CCOCC1` [Example A188] the same measures were 6200 nM, 7.61 nM, 3310 nM, 3.89 nM and 54.7 nM.
On to `O=C(NO)C1(S(=O)(=O)N2CCN(c3ccc(CCC(F)(F)C(F)(F)F)cn3)CC2)CCOCC1` [Example A190], for which the Ki was 3350 nM at MMP-14; 0.39 nM on MMP-2; more than 10000 nM at MMP-1; 0.22 nM on MMP-13; 1.09 nM at MMP-9.
Take `CSCCOc1ccc(C2CCN(S(=O)(=O)C3(C(=O)NO)CCOCC3)CC2)nc1` [Example A191]: the inhibition constant (Ki) on MMP-14 was found to be 470 nM; at MMP-2 it was 0.31 nM; on MMP-1, 1710 nM; on MMP-13, 0.13 nM; on MMP-9 it was 0.27 nM.
The corresponding values for `Cc1cnn(-c2ccc(C3CCN(S(=O)(=O)C4(C(=O)NO)CCOCC4)CC3)nc2)c1` [Example A193] are 2820 nM, 4.7 nM, 4710 nM, 2.09 nM and 8.24 nM.
Turning to `O=C(NO)C1(S(=O)(=O)N2CCC(c3ccc(-n4cccn4)cn3)CC2)CCOCC1` [Example A194], the Ki on MMP-14 was 1700 nM; at MMP-2, 8.71 nM; at MMP-1, more than 10000 nM; at MMP-13 it was 8.86 nM; on MMP-9 it was 12.6 nM.
With `O=C(NO)C1(S(=O)(=O)N2CCN(c3ccc(-c4cccnc4)c(F)c3)CC2)CCOCC1` [Example A195], the Ki at MMP-14 was determined as 2430 nM; at MMP-2 it was 0.18 nM; at MMP-1 it was 1570 nM; at MMP-13, 0.34 nM; at MMP-9, 6.81 nM.
For `CCCCc1cnc(C2CCN(S(=O)(=O)C3(C(=O)NO)CCOCC3)CC2)nc1` [Example A196] the same measures were more than 10000 nM, 70 nM, more than 10000 nM, 21.8 nM and 2.02 nM.
For `O=C(NO)C1(S(=O)(=O)N2CCN(c3ccc(-c4nnn(CC(F)(F)F)n4)cc3)CC2)CCOCC1` [Example A199] the same measures were 287 nM, 0.06 nM, 287 nM, 0.04 nM and 0.84 nM.
The corresponding values for `O=C(NO)C1(S(=O)(=O)N2CCC(c3ccc(-c4nccs4)cn3)CC2)CCOCC1` [Example A200] are more than 10000 nM, 8.83 nM, more than 10000 nM, 6.77 nM and 6.77 nM.
For `Cn1cc(-c2ccc(C3CCN(S(=O)(=O)C4(C(=O)NO)CCOCC4)CC3)nc2)cn1` [Example A201], the Ki at MMP-14 stood at 3380 nM; on MMP-2, 4.25 nM; at MMP-1, 5850 nM; at MMP-13, 2.14 nM; on MMP-9, 16.8 nM.
The corresponding values for `Cn1nnc(-c2ccc(C3CCN(S(=O)(=O)C4(C(=O)NO)CCOCC4)CC3)cc2)n1` [Example A202] are 1230 nM, 0.46 nM, 2300 nM, 2.08 nM and 0.92 nM.
Regarding `O=C(NO)C1(S(=O)(=O)N2CCC(c3ccc(CCC(F)(F)C(F)(F)F)cn3)CC2)CCN(C2CC2)CC1` [Example A204], the Ki was 5100 nM at MMP-14; 0.65 nM on MMP-2; more than 10000 nM at MMP-1; 0.23 nM at MMP-13; 0.29 nM on MMP-9.

The values are drawn from US20050209278A1, “Piperidinyl- and piperazinyl-sulfonylmethyl hydroxamic acids and their use as protease inhibitors” (priority 2002, published 2005).
